Laboratory results: patent US11919901B2 (Syndax Pharmaceuticals, Inc., priority 2021, dated 2024)
pEC50, pIC50, pKi: −log10 of the molar value.

How the values were obtained:
[1] = molecular target: Menin-MLL (Homo sapiens (Human), UniProt O00255); assay: Determination of binding constants (Ki) to Menin-MLL (HTRF); conditions: HTRF, 0.25 nM H-FL-Menin, 3.2 nM FITC-MLL-4-43, 24 hr incubation; for pKi: read-out: Menin-MLL Ki HTRF Assay: Ki
[2] = molecular target: hERG (Homo sapiens (Human), UniProt Q12809); assay: Patch clamp assay (hERG tail currents, whole-cell); assay type: cell-based; conditions: hERG transfected HEK 293 cells; for hERG % Remaining 30 μM: 30 μM compound; for hERG % Remaining 10 μM: 10 μM compound; for hERG % Remaining 100 μM: 100 μM compound
Chain of hERG (Q12809 whole entry): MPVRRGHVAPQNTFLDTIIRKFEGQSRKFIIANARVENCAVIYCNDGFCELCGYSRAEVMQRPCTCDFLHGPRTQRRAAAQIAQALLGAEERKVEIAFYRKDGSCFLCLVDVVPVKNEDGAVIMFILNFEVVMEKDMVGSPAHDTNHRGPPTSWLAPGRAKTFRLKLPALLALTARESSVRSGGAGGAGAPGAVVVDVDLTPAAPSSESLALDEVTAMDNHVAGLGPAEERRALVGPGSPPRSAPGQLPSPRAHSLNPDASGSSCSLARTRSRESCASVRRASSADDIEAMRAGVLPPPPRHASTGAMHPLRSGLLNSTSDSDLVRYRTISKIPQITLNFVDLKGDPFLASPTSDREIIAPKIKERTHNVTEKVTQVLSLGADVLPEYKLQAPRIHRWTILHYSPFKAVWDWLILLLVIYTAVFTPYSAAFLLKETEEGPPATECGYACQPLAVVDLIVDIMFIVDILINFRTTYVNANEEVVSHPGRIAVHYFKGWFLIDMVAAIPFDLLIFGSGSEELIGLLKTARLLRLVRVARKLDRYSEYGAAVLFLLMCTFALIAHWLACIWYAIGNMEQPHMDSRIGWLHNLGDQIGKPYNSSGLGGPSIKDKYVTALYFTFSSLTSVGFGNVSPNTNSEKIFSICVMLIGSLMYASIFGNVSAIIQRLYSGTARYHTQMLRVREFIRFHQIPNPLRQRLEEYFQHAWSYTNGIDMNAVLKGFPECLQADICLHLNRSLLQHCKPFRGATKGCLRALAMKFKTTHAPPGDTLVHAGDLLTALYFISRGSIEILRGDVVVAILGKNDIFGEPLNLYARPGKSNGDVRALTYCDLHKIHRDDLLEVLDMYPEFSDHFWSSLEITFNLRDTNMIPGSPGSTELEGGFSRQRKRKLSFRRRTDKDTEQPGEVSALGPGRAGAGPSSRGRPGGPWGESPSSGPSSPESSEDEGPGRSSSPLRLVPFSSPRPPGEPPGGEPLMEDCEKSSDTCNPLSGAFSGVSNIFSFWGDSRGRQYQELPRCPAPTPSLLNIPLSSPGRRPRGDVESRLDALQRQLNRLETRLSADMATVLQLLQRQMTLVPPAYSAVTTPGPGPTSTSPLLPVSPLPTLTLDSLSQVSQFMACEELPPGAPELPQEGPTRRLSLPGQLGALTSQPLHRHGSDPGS
Description: The 35 mm culture dishes upon which cells were seeded at a density allowing single cells to be recorded were placed on the dish holder of the microscope and continuously perfused (at approximately 1 mL/min) with the bath solution described in section 4.6. All solutions applied to cells including the pipette solution were maintained at room temperature (19° C. to 30° C.). After formation of a Gigaohm seal between the patch electrodes and individual hERG stably transfected HEK 293 cells (pipette resistance range: 2.0 MΩ2 to 7.0 MΩ; seal resistance range: >1GΩ) the cell membrane across the pipette tip was ruptured to assure electrical access to the cell interior (whole-cell patch-configuration). In case the quality of the seal was poor, the process of seal formation was repeated with a different cell and a new pipette. As soon as a stable seal could be established, hERG outward tail currents were measured upon depolarization of the cell membrane to +20 mV for 2s (activation of channels) from a holding potential of −80 mV and upon subsequent repolarization to −40 mV for 3 s. This voltage protocol (as shown below) was run at least 10 times at intervals of 10 s. If current density was judged to be too low for measurement, another cell was recorded.
During wash-in of the test item the voltage protocol indicated above was run continuously again at 10 s intervals until the steady-state level of block was reached.
The IC50 was determined by fitting the dose response curve with a 2-parameter logistic function (amax=100%).

Chain of Menin-MLL (O00255 whole entry): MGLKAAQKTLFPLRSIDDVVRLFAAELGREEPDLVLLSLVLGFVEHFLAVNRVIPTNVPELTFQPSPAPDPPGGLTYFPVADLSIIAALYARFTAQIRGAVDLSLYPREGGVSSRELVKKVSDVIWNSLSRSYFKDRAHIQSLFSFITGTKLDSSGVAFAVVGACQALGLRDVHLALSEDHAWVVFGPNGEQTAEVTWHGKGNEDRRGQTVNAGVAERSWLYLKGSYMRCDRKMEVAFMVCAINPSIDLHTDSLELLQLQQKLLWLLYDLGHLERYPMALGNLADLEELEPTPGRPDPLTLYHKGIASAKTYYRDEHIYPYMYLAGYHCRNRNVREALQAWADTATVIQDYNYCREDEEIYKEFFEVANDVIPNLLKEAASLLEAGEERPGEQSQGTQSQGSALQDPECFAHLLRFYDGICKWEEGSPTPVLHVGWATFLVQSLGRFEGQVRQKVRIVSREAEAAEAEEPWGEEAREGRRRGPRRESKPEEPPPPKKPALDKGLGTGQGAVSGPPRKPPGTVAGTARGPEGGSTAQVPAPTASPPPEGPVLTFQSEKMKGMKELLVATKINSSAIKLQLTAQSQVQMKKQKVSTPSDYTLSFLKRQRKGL

Structure (SMILES)	pKi [1]	hERG % Remaining 30 μM [2]	pEC50 [1]	hERG % Remaining 10 μM [2]	hERG % Remaining 100 μM [2]	pIC50 [2]	pIC50 ([2]; human, HEK 293 cells stably transfected with hERG)
C[C@@H]1COC[C@@H](C)N1C(=O)c1cc(F)ccc1Oc1cncnc1N1CC2(CCN(C[C@@H]3CC[C@@H](NS(=O)(=O)NCC4CC4)CO3)CC2)C1 [Compound 158, (Cyclopropylmethyl)({[(3R,6S)-6-{[2-(5-{2-[(3R,5R)-3,5-dimethylmorpholine-4-carbonyl]-4-fluorophenoxy}pyrimidin-4-yl)-2,7-diazaspiro[3.5]nonan-7-yl]methyl}oxan-3-yl]sulfamoyl})amine]	> 9.00	+++ (“+++” means ≥66%)					
C[C@@H]1COC[C@H](C)N1C(=O)c1cc(F)ccc1Oc1cncnc1N1CC2(CCN(C[C@@H]3CC[C@@H](NS(=O)(=O)N4CCC4)CO3)CC2)C1 [Compound 161, N-((3R,6S)-6-((2-(5-(2-((3R,5S)-3,5-Dimethylmorpholine-4-carbonyl)-4-fluorophenoxy)pyrimidin-4-yl)-2,7-diazaspiro[3.5]nonan-7-yl)methyl)tetrahydro-2H-pyran-3-yl)azetidine-1-sulfonamide]	> 9.00	+++ (“+++” means ≥66%)					
CC(C)N(C(=O)c1cc(F)ccc1Oc1cncnc1N1CC2(CCN(C[C@@H]3CC[C@@H](NS(=O)(=O)C4CC4)CO3)CC2)C1)[C@@H]1CCOC1 [Compound 164, 2-((4-(7-(((2S,5R)-5-(Cyclopropanesulfonamido)tetrahydro-2H-pyran-2-yl)methyl)-2,7-diazaspiro[3.5]nonan-2-yl)pyrimidin-5-yl)oxy)-5-fluoro-N-isopropyl-N-((R)-tetrahydrofuran-3-yl)benzamide]	> 9.00	+++ (“+++” means ≥66%)	> 7.30	+++ (“+++” means ≥66%)			
CCN(CC)S(=O)(=O)N[C@@H]1CC[C@@H](CN2CCC3(CC2)CN(c2ncncc2Oc2ccc(F)cc2C(=O)N(C(C)C)[C@@H]2CCOC2)C3)OC1 [Compound 165, 2-((4-(7-(((2S,5R)-5-((N,N-Diethylsulfamoyl)amino)tetrahydro-2H-pyran-2-yl)methyl)-2,7-diazaspiro[3.5]nonan-2-yl)pyrimidin-5-yl)oxy)-5-fluoro-N-isopropyl-N-((R)-tetrahydrofuran-3-yl)benzamide]	> 9.00	++ (“++” means ≥33% and <66%)		+++ (“+++” means ≥66%)			
CC(C)N(C(=O)c1cc(F)ccc1Oc1cncnc1N1CC2(CCN(C[C@@H]3CC[C@@H](NS(=O)(=O)N(C)C)CO3)CC2)C1)[C@@H]1CCOC1 [Compound 167, 2-((4-(7-(((2S,5R)-5-((N,N-Dimethylsulfamoyl)amino)tetrahydro-2H-pyran-2-yl)methyl)-2,7-diazaspiro[3.5]nonan-2-yl)pyrimidin-5-yl)oxy)-5-fluoro-N-isopropyl-N-((R)-tetrahydrofuran-3-yl)benzamide]	> 9.00	+++ (“+++” means ≥66%)			+++ (“+++” means ≥66%)	≤ 4.30	
CCN(CC)S(=O)(=O)N[C@@H]1CC[C@@H](CN2CCC3(CC2)CN(c2ncncc2Oc2ccc(F)cc2C(=O)N(C(C)C)[C@H]2CCOC2)C3)OC1 [Compound 175, 2-((4-(7-(((2S,5R)-5-((N,N-Diethylsulfamoyl)amino)tetrahydro-2H-pyran-2-yl)methyl)-2,7-diazaspiro[3.5]nonan-2-yl)pyrimidin-5-yl)oxy)-5-fluoro-N-isopropyl-N-((S)-tetrahydrofuran-3-yl)benzamide]	> 9.00	+ (“+” means <33%)		++ (“++” means ≥33% and <66%)			
CC(C)N(C(=O)c1cc(F)ccc1Oc1cncnc1N1CC2(CCN(C[C@@H]3CC[C@@H](NS(=O)(=O)C4CC4)CO3)CC2)C1)[C@H]1CCOC1 [Compound 176, 2-((4-(7-(((2S,5R)-5-(Cyclopropanesulfonamido)tetrahydro-2H-pyran-2-yl)methyl)-2,7-diazaspiro[3.5]nonan-2-yl)pyrimidin-5-yl)oxy)-5-fluoro-N-isopropyl-N-((S)-tetrahydrofuran-3-yl)benzamide]	> 9.00	+++ (“+++” means ≥66%)		+++ (“+++” means ≥66%)	+++ (“+++” means ≥66%)		≤ 4.30
CC(C)N(C(=O)c1cc(F)ccc1Oc1cncnc1N1CC2(CCN(C[C@@H]3CC[C@@H](NS(=O)(=O)N(C)C)CO3)CC2)C1)[C@H]1CCOC1 [Compound 177, 2-((4-(7-(((2S,5R)-5-((N,N-Dimethylsulfamoyl)amino)tetrahydro-2H-pyran-2-yl)methyl)-2,7-diazaspiro[3.5]nonan-2-yl)pyrimidin-5-yl)oxy)-5-fluoro-N-isopropyl-N-((S)-tetrahydrofuran-3-yl)benzamide]	> 9.00	+++ (“+++” means ≥66%)		+++ (“+++” means ≥66%)			
CC(C)N(CC#N)C(=O)c1cc(F)ccc1Oc1cncnc1N1CC2(CCN(C[C@@H]3CC[C@@H](NS(=O)(=O)N(C)C)CO3)CC2)C1 [Compound 181, N-(Cyanomethyl)-2-((4-(7-(((2S,5R)-5-((N,N-dimethylsulfamoyl)amino)tetrahydro-2H-pyran-2-yl)methyl)-2,7-diazaspiro[3.5]nonan-2-yl)pyrimidin-5-yl)oxy)-5-fluoro-N-isopropylbenzamide]	> 9.00	+++ (“+++” means ≥66%)					
CC(C)N(CC#N)C(=O)c1cc(F)ccc1Oc1cncnc1N1CC2(CCN(C[C@@H]3CC[C@@H](NS(=O)(=O)N4CCC4)CO3)CC2)C1 [Compound 182, 2-((4-(7-(((2S,5R)-5-(Azetidine-1-sulfonamido)tetrahydro-2H-pyran-2-yl)methyl)-2,7-diazaspiro[3.5]nonan-2-yl)pyrimidin-5-yl)oxy)-N-(cyanomethyl)-5-fluoro-N-isopropylbenzamide]	> 9.00	+++ (“+++” means ≥66%)					
CC(C)N(CCC#N)C(=O)c1cc(F)ccc1Oc1cncnc1N1CC2(CCN(C[C@@H]3CC[C@@H](NS(=O)(=O)N(C)C)CO3)CC2)C1 [Compound 183, N-(2-Cyanoethyl)-2-((4-(7-(((2S,5R)-5-((N,N-dimethylsulfamoyl)amino)tetrahydro-2H-pyran-2-yl)methyl)-2,7-diazaspiro[3.5]nonan-2-yl)pyrimidin-5-yl)oxy)-5-fluoro-N-isopropylbenzamide]	> 9.00	+++ (“+++” means ≥66%)					
CC(C)N(CC(F)F)C(=O)c1cc(F)ccc1Oc1nncnc1N1CC2(CCN(C[C@@H]3CC[C@@H](NS(=O)(=O)N4CCC4)CO3)CC2)C1 [Compound 189, 2-((5-(7-(((2S,5R)-5-(Azetidine-1-sulfonamido)tetrahydro-2H-pyran-2-yl)methyl)-2,7-diazaspiro[3.5]nonan-2-yl)-1,2,4-triazin-6-yl)oxy)-N-(2,2-difluoroethyl)-5-fluoro-N-isopropylbenzamide]	> 9.00	+++ (“+++” means ≥66%)					
CC(C)N(C(=O)c1cc(F)ccc1Oc1nncnc1N1CC2(CCN(C[C@@H]3CC[C@@H](NS(=O)(=O)C4CC4)CO3)CC2)C1)C(C)C [Compound 196, 2-((5-(7-(((2S,5R)-5-(Cyclopropanesulfonamido)tetrahydro-2H-pyran-2-yl)methyl)-2,7-diazaspiro[3.5]nonan-2-yl)-1,2,4-triazin-6-yl)oxy)-5-fluoro-N,N-diisopropylbenzamide]	> 9.00	+++ (“+++” means ≥66%)					
CCNS(=O)(=O)N[C@@H]1CC[C@@H](CN2CCC3(CC2)CN(c2ncnnc2Oc2ccc(F)cc2C(=O)N(C(C)C)C(C)C)C3)OC1 [Compound 198]	> 9.00	+++ (“+++” means ≥66%)					
CC(C)N(C(=O)c1cc(F)ccc1Oc1nncnc1N1CC2(CCN(C[C@@H]3CC[C@@H](NS(=O)(=O)N4CCC4)CO3)CC2)C1)C(C)C [Compound 199, 2-((5-(7-(((2S,5R)-5-(Azetidine-1-sulfonamido)tetrahydro-2H-pyran-2-yl)methyl)-2,7-diazaspiro[3.5]nonan-2-yl)-1,2,4-triazin-6-yl)oxy)-5-fluoro-N,N-diisopropylbenzamide]	> 9.00	+++ (“+++” means ≥66%)					
CCN(C(=O)c1cc(F)ccc1Oc1cncnc1N1CC2(CCN(C[C@@H]3CC[C@@H](NS(=O)(=O)N4CCC[C@H]4C)CO3)CC2)C1)C(C)C [Compound 200, N-Ethyl-5-fluoro-N-isopropyl-2-((4-(7-(((2S,5R)-5-(((R)-2-methylpyrrolidine)-1-sulfonamido)tetrahydro-2H-pyran-2-yl)methyl)-2,7-diazaspiro[3.5]nonan-2-yl)pyrimidin-5-yl)oxy)benzamide]	> 9.00	+ (“+” means <33%)		++ (“++” means ≥33% and <66%)			
CCN(C(=O)c1cc(F)ccc1Oc1cncnc1N1CC2(CCN(C[C@@H]3CC[C@@H](NS(=O)(=O)N4CCC[C@@H]4C)CO3)CC2)C1)C(C)C [Compound 201, N-Ethyl-5-fluoro-N-isopropyl-2-((4-(7-(((2S,5R)-5-(((S)-2-methylpyrrolidine)-1-sulfonamido)tetrahydro-2H-pyran-2-yl)methyl)-2,7-diazaspiro[3.5]nonan-2-yl)pyrimidin-5-yl)oxy)benzamide]	> 9.00	+ (“+” means <33%)		+ (“+” means <33%)			
CC(C)N(C(=O)c1cc(F)ccc1Oc1cncnc1N1CC2(CCN(C[C@@H]3CC[C@@H](NS(=O)(=O)N4CCC[C@@H]4C)CO3)CC2)C1)C(C)C [Compound 202, 5-Fluoro-N,N-diisopropyl-2-((4-(7-(((2S,5R)-5-(((S)-2-methylpyrrolidine)-1-sulfonamido)tetrahydro-2H-pyran-2-yl)methyl)-2,7-diazaspiro[3.5]nonan-2-yl)pyrimidin-5-yl)oxy)benzamide]	> 9.00	+ (“+” means <33%)					
